Assay: acid dissociation constant pKa by alkali titration method
Assay type: physicochemical
Conditions: 25° C., mixed solvent tetrahydrofuran 60 ml/water 40 ml
Protocol: The cellulose acylate film of the present invention contains at least two chelating agents. One of the two chelating agents is a chelating agent having a […] pKa and, in the present invention, such is a chelating agent (chelating agent A) having at least one functional group whose acid dissociation constant pKa measured at 25° C. in a mixed solvent having a mixing ratio of tetrahydrofuran 60 ml/water 40 ml is 6 or less.
The acid dissociation constant pKa can be measured in accordance with an alkali titration method described in Experimental Chemistry Course, 2nd Ed., pp. 215-217, published by MARUZEN PUBLISHING CO., LTD.
At least one residual chelating agent of the at least two chelating agents which the cellulose acylate film of the present invention contains, is a chelating agent B having at least one functional group of a conjugate acid, whose pKa measured at 25° C. in a mixed solvent having a mixing ratio of tetrahydrofuran 60 ml/water 40 ml, is 7 or more.
In the case of CCCCCCCCCCCCCCCC(=O)OC[C@H](O)[C@H]1OC(=O)C(O)=C1O [L-ascorbic acid palmitic acid ester], the “Chelating agent A pKa of acidic group” value is reported as 6.0.
For O=P(O)(O)CN(CCN(CP(=O)(O)O)CP(=O)(O)O)CP(=O)(O)O [PH-540, Ethylenediamine N,N,N′,N′-tetrakis(methylenephosphonic acid)], the “Chelating agent A pKa of acidic group” value was “Less than 3”.
In the case of O=C(O)CN(CCN(CC(=O)O)CC(=O)O)CCN(CC(=O)O)CC(=O)O [diethylenetriaminepentaacetic acid], the “Chelating agent A pKa of acidic group” value is reported as 3.6.

Same assay, conditions: pKa of conjugate acid; 25° C., mixed solvent tetrahydrofuran 60 ml/water 40 ml; read-out: Chelating agent B pKa of basic group
In the case of ONc1nc(NC2CCCCC2)nc(NC2CCCCC2)n1 [Chelating agent D], the pKa is reported as 14.
NCCNCCNCCN [triethylenetetramine] showed a pKa of 8.9.
With CC(O)CN(CCN(CC(C)O)CC(C)O)CCN(CC(C)O)CC(C)O (stereo not drawn) [N,N,N′,N″,N″-pentakis(2-hydroxypropyl)diethylenetriamine] the pKa was 8.4.

Source: US9644083B2, “Cellulose acylate film, polarizing plate protective film, polarizing plate and liquid crystal display using the same” (FUJIFILM Corporation, priority 2014, dated 2017)
